For 16 compounds, T/C results are on record in PubChem BioAssay AID200 (DTP/NCI, 2004).

Each structure is given as a SMILES string. Where “and” joins values, the source holds several entries; their conditions need not be identical. Identical values can stand only once. Inconclusive results and toxic doses are left out.

For this assay, the system named is B6C3F1 mice, B16 melanoma ip, median survival T/C. Nature of the assay: NCI In Vivo Anticancer Drug Screen. Data for tumor model B16 Melanoma (intraperitoneal) in B6C3F1 mice. To be noted: endpoint: median survival time, schedule: Q01DX009 (ip), higher = longer survival. The procedure, abridged:
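Values are T/C ratios: the measurement in treated animals divided by that in vehicle-treated controls, using survival or tumor size in mice carrying transplantable tumors.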

[1] abbreviates: dose: 25.0 mg/kg/injection, vehicle: suspension in saline.
Setting [2] is: dose: 50.0 mg/kg/injection, vehicle: suspension in saline.
Setting [3] is: dose: 100.0 mg/kg/injection, vehicle: suspension in saline.
Where [4] appears, read: dose: 12.5 mg/kg/injection, vehicle: saline with Tween-80.
[5] abbreviates: dose: 25.0 mg/kg/injection, vehicle: saline with Tween-80.
Where [6] appears, read: dose: 50.0 mg/kg/injection, vehicle: saline with Tween-80.
The mark [7] stands for this setting: dose: 100.0 mg/kg/injection, vehicle: saline with Tween-80.
[8] abbreviates: dose: 200.0 mg/kg/injection, vehicle: saline with Tween-80.
Setting [9] is: dose: 0.25 mg/kg/injection, vehicle: saline.
Setting [10] is: dose: 0.5 mg/kg/injection, vehicle: saline.
Setting [11] is: dose: 1.0 mg/kg/injection, vehicle: saline.
Setting [12] is: dose: 2.0 mg/kg/injection, vehicle: saline.

For the compound `C/C=C1\C[C@@H]2C(OC)Nc3cc(O)c(OC)cc3C(=O)N2C1` (some centres undefined), the T/C was 103 % of control (dose: 0.03 mg/kg/injection, vehicle: suspension in saline); 109 % of control (dose: 0.06 mg/kg/injection, vehicle: suspension in saline); 106 % of control (dose: 0.12 mg/kg/injection, vehicle: suspension in saline).
As to `CC12C(=O)C=CCC1=CCC1C2CCC2(O)C(=O)OC3(C)C4CC5(C)C(COC16OC23C5C6=O)C(=O)O4` (centres undefined), the T/C was 93 % of control (dose: 100.0 mg/kg/injection, vehicle: Klucel (hydroxypropylcellulose) (HPC)) and 98 % of control (dose: 200.0 mg/kg/injection, vehicle: Klucel (hydroxypropylcellulose) (HPC)).
As to `Nc1cccc(=O)[nH]1`, the T/C is 93 % of control under setting [1]; 95 % of control under setting [2]; 94 % of control under setting [3]; 94 % of control (dose: 200.0 mg/kg/injection, vehicle: suspension in saline); 93 % of control (dose: 400.0 mg/kg/injection, vehicle: suspension in saline).
In the case of `CCCCCCCCCCCCCC#CC(=O)O`, the T/C is 110 % of control and 94 % of control (dose: 3.12 mg/kg/injection, vehicle: saline with Tween-80); 112 % of control and 94 % of control (dose: 6.25 mg/kg/injection, vehicle: saline with Tween-80); 92 % of control and 105 % of control under setting [4]; 89 % of control under setting [5].
Turning to `Nc1nc(-c2ccc([N+](=O)[O-])cc2)c(Br)c(=O)[nH]1`, the T/C is, setting by setting: under setting [5], 98 % of control; under setting [6], 107 % of control; under setting [7], 107 % of control; under setting [8], 95 % of control.
In the case of `CC1=C(C)C(=O)O[C@@H]([C@](C)(O)[C@]2(O)CC[C@@]3(O)[C@@H]4C[C@H]5O[C@]56[C@@H](O)C=CC(=O)[C@]6(C)[C@H]4CC[C@]23C)C1`, the T/C reads like this: (dose: 0.25 mg/kg/injection, vehicle: saline + alcohol) 122 % of control; under setting [9], 107 % of control; (dose: 0.5 mg/kg/injection, vehicle: saline + alcohol) 117 % of control; under setting [10], 116 % of control; (dose: 1.0 mg/kg/injection, vehicle: saline + alcohol) 122 % of control; under setting [11], 115 % of control and 124 % of control. Further, the T/C by setting is: under setting [12], 115 % of control; (dose: 4.0 mg/kg/injection, vehicle: saline + alcohol) 150 % of control; (dose: 16.0 mg/kg/injection, vehicle: saline) 152 % of control and 171 % of control; (dose: 16.0 mg/kg/injection, vehicle: suspension in saline) 170 % of control.
`CCCCCCC/C=C/C(=O)OC1C(OC2C(OC(CCCCCCC)CC(=O)OC(CCCCCCC)CC(=O)O)OC(C)C(O)C2O)OC(C)C(O)C1O` (centres undefined): the T/C by setting is: (dose: 0.78 mg/kg/injection, vehicle: Klucel (hydroxypropylcellulose) (HPC)) 103 % of control; (dose: 1.56 mg/kg/injection, vehicle: Klucel (hydroxypropylcellulose) (HPC)) 87 % of control; (dose: 3.12 mg/kg/injection, vehicle: Klucel (hydroxypropylcellulose) (HPC)) 94 % of control.
Turning to `Cc1cc(O)c(O)c(Oc2cc(C)cc(O)c2O)c1`, the T/C runs as follows: (dose: 75.0 micrograms/kg/injection, vehicle: saline) 94 % of control; (dose: 150.0 micrograms/kg/injection, vehicle: saline) 104 % of control; (dose: 300.0 micrograms/kg/injection, vehicle: saline) 105 % of control.
For the compound `COc1ccc(O)cc1`, the T/C under setting [4] is 112 % of control; the T/C (dose: 18.0 mg/kg/injection, vehicle: saline with Tween-80) was 98 % of control; the T/C under setting [5] is 101 % of control; the T/C (dose: 30.0 mg/kg/injection, vehicle: saline with Tween-80) is 106 % of control; the T/C under setting [6] is 102 % of control; the T/C (dose: 89.0 mg/kg/injection, vehicle: saline with Tween-80) was 106 % of control. Moreover, the T/C is, setting by setting: under setting [7], 104 % of control; (dose: 189.0 mg/kg/injection, vehicle: saline with Tween-80) 101 % of control; under setting [8], 105 % of control.
Regarding `CCN1/C(=C/C(C)=C/c2sc3ccc4ccccc4c3[n+]2CC)Sc2ccc3ccccc3c21`, the T/C (dose: 0.02 mg/kg/injection, vehicle: saline with Tween-80) is 95 % of control and the T/C (dose: 0.05 mg/kg/injection, vehicle: saline with Tween-80) is 106 % of control.
As to `c1ccc(OCC2CO2)c(OCC2CO2)c1` (centres undefined), the T/C reads like this: under setting [4], 108 % of control; under setting [5], 109 % of control and 114 % of control and 118 % of control; under setting [7], 150 % of control and 171 % of control; under setting [8], 219 % of control.
`CO[C@H](C(=O)[C@@H](O)[C@@H](C)O)[C@@H]1Cc2cc3cc(OC4CC(OC5CC(O)C(O)C(C)O5)C(O)C(C)O4)c(C)c(O)c3c(O)c2C(=O)[C@H]1OC1CC(OC2CC(OC3CC(C)(O)C(O)C(C)O3)C(O)C(C)O2)C(O)C(C)O1` (some centres undefined): the T/C is 111 % of control (dose: 0.06 mg/kg/injection, vehicle: saline); 101 % of control (dose: 0.12 mg/kg/injection, vehicle: saline); 101 % of control under setting [9]; 117 % of control under setting [10]; 105 % of control under setting [11]; 113 % of control under setting [12].
Turning to `CCCCOc1ccc(C(=O)SCCCN=C(N)N)cc1`, the T/C reads like this: (dose: 3.12 mg/kg/injection, vehicle: suspension in saline) 92 % of control; (dose: 6.25 mg/kg/injection, vehicle: suspension in saline) 97 % of control; under setting [1], 87 % of control.
Consider `O=C1c2ccccc2-c2c(Br)c3ccccc3c(=O)n21`, for which the T/C reads like this: under setting [6], 90 % of control; under setting [7], 101 % of control; under setting [8], 95 % of control; (dose: 400.0 mg/kg/injection, vehicle: saline with Tween-80) 94 % of control.
With `CC(C)(C)OC(=O)NC(CCC(=O)O)C(=O)O` (centres undefined), the T/C was 107 % of control (dose: 100.0 mg/kg/injection, vehicle: saline); 107 % of control (dose: 200.0 mg/kg/injection, vehicle: saline); 94 % of control (dose: 400.0 mg/kg/injection, vehicle: saline).
Regarding `O=c1[nH]cnc2[nH]ncc12`, the T/C (dose: 12.5 mg/kg/injection, vehicle: suspension in saline) was 103 % of control; the T/C under setting [1] is 112 % of control; the T/C under setting [2] is 97 % of control; the T/C under setting [3] is 88 % of control.
